{
  "source": "patent US8912184B1",
  "about": "“Therapeutic and diagnostic methods” (Alzheimer's Institute of America, Inc., priority 2010, dated 2014)",
  "key": {"HCT116 cells [1]": {"system": "HCT116 cells", "assay": "72 Hour HCT116 Cytotoxicity Assay (CellTiter-Glo)", "type": "cell-based", "details": "Homo sapiens, HCT-116, 72 h, HCT116 cells, 72 h, read-out: IC50 cytotoxicity", "description": "HCT116 cells were seeded in 96 well plates (Greiner Bio-One, Monroe, N.C.) and allowed to settle overnight. Test compound dissolved in dimethyl sulfoxide (DMSO) was added and drug incubation proceeded for 72 hours. […] After 72 hour, 50 μL of CellTiter-Glo Luminescent Cell Viability Assay reagent (Promega Corporation, Madison, Wis.) was added to cells in 200 μL of cellular media. After a proscribed incubation period, luminescence was measured using a TopCount NXT plate reader (PerkinElmer, Waltham, Mass.)."}, "HCT116 cells [2]": {"system": "HCT116 cells", "assay": "ATP measured in cellular lysates (ATP depletion) of HCT116 cells", "type": "cell-based", "details": "Homo sapiens, read-out: potency (IC50) for ATP depletion", "experimental": "NAD in cells was measured by modification of existing protocols (Lee, H. I., et al. Exp. Mol. Med. 40, 246-253 (2008)). MCF-10A cells stably transduced with the PIK3CA(H1047R) oncogene were seeded in 96 well plates at very high density (100% confluence) and allowed to settle overnight. Test compound dissolved in DMSO was added and drug incubation proceeded for 20-24 hours. Cells were washed with PBS and harvested by incubation in 25 μL 0.5 M perchloric acid (HClO4) followed by vigorous shaking at 4° C. for 15 minutes. Acidic cell lysates were neutralized by adding 8 μL of 2 M KOH/0.2 M K2HPO4. The entire lysate volume was transferred to a centrifuge plate and spun at 3000 rpm in a table top centrifuge (4° C.) for 5 minutes to clear the precipitate. […] Reactions were allowed to proceed for 1 hour at room temperature, after which time fluorescence was read on a Gemini plate reader as described above.\nFor ATP measurement, 5 μL of cleared lysate was added to 195 μL PBS. 50 μL CellTiter-Glo reagent (Promega Corporation, Madison, Wis.) was added and ATP measured as described in the cytotoxicity assay methods.\nKinetics of NAD and ATP depletion in Naprt1-proficient HCT116 cells induced by Exemplary Compound A was studied using the assays described above. HCT116 cells were treated with 8.5 nM Exemplary Compound A and cellular NAD and ATP were measured at various times. […]"}, "[3]": {"system": "MIAPaCa-2 xenograft tumors", "assay": "MIAPaCa-2 human pancreatic carcinoma murine xenograft, tumor growth and survival", "type": "in vivo, mice", "details": "for animals having tumor volumes >1500 mm3 at end of study: Day 40", "experimental": "Exemplary Compound A was tested for its ability to suppress tumor growth, and promote survival in MIAPaCa-2 human pancreatic carcinoma (i.e., a Naprt-deficient cancer) murine xenograft models (FIG. 9). In these experiments, MIAPaCa-2 tumor-bearing mice with a median tumor volume of 202 mm^3 were orally dosed on days 1, 10 and 19 with either vehicle, 75 mg/kg Exemplary Compound A or 200 mg/kg Exemplary Compound A in combination with 400 mg/kg NA, or were orally dosed daily with 400 mg/kg NA for 21 days. See key below FIG. 9(b). NA was always administered one hour prior to dosing with Exemplary Compound A or vehicle."}, "[4]": {"type": "in vivo", "details": "mice, single oral dose 300 mg/kg, by 5 days"}, "HCT116 xenograft tumors": {"system": "HCT116 xenograft tumors", "assay": "HCT116 human colon carcinoma murine xenograft, tumor growth/regression", "type": "in vivo, nu/nu mice", "experimental": "Exemplary Compound A was tested for its ability to deplete NAD levels and promote tumor regression in an HCT116 (i.e., a Naprt-proficient cancer) murine xenograft model. Three million HCT116 human colon carcinoma cells were injected subcutaneously into nu/nu mice to form tumors. Dosing was started ten days later when median tumor volume was >100 mm^3.\nExemplary Compound A was administered orally to HCT116 tumor-bearing xenograft mice once (arrow) at the maximum tolerated dose of 75 mg/kg with or without simultaneous delivery of NA by Alzet pump (470 mg/kg/day for three days) (FIG. 8(b)).\n(§1) The effect of weekly administration of Exemplary Compound A on tumor growth was examined in murine HCT116 xenograft models (FIG. 8(c)). HCT116 tumor-bearing xenograft mice were orally dosed with 75 mg/kg Exemplary Compound A weekly for three cycles (arrows), resulting in a maximal tumor response of 10% regression on day 18.\nas §1, with “daily” for “weekly”, “8(d)).” for “8(c)).”, “10” for “75”, “21 days (black bar),” for “three cycles (arrows),”, “32%” for “10%”, “11.” for “18.”"}, "HCT116 cells [5]": {"system": "HCT116 cells", "assay": "NAD measured in cellular lysates (NAD depletion) of HCT116 cells", "type": "cell-based, human", "details": "for IC50: Homo sapiens", "experimental": "NAD in cells was measured by modification of existing protocols (Lee, H. I., et al. Exp. Mol. Med. 40, 246-253 (2008)). MCF-10A cells stably transduced with the PIK3CA(H1047R) oncogene were seeded in 96 well plates at very high density (100% confluence) and allowed to settle overnight. Test compound dissolved in DMSO was added and drug incubation proceeded for 20-24 hours. Cells were washed with PBS and harvested by incubation in 25 μL 0.5 M perchloric acid (HClO4) followed by vigorous shaking at 4° C. for 15 minutes. Acidic cell lysates were neutralized by adding 8 μL of 2 M KOH/0.2 M K2HPO4. The entire lysate volume was transferred to a centrifuge plate and spun at 3000 rpm in a table top centrifuge (4° C.) for 5 minutes to clear the precipitate. Lysate was assayed for both NAD and ATP. For NAD measurement, 10 μL lysate from the centrifuged plate was added to 90 μL of reaction solution in Costar 96 half-well plates (Corning, Corning, N.Y.). […]. Reactions were allowed to proceed for 1 hour at room temperature, after which time fluorescence was read on a Gemini plate reader as described above.\nUsing such methods NAD Depeletion was followed in lysates of Naprt-proficient HCT116 cells, exposed to Exemplary Compound A, as shown in FIG. 4 (a). […].\nKinetics of NAD and ATP depletion in Naprt1-proficient HCT116 cells induced by Exemplary Compound A was studied using the assays described above. HCT116 cells were treated with 8.5 nM Exemplary Compound A and cellular NAD and ATP were measured at various times.\nPotency of Exemplary Compound A as a function of time of exposure was also studied using the assays described above. Cells were treated with a range of Exemplary Compound A concentration for varying times of exposure, and IC50 values for NAD and ATP depletion were determined. […]."}, "[6]": {"assay": "Maximum tolerated dose in mice", "details": "nu/nu, mouse, in vivo, oral"}},
  "data": [
    {"smiles": "O=C(NCc1cccnc1)Nc1ccc(COc2ccccc2-c2ccccc2)cc1", "note": "[Exemplary Compound A, 1-{4-[(biphenyl-2-yloxy)methyl]phenyl}-3-(pyridin-3-ylmethyl)urea]", "values": [
      {"measurement": "IC50", "setting": "HCT116 cells [1]; absence of 10 μM NA", "value": 0.26, "unit": "nM"},
      {"measurement": "IC50", "setting": "HCT116 cells [1]; presence of 10 μM NA", "value": "> 10000", "unit": "nM"},
      {"measurement": "IC50", "setting": "HCT116 cells [2]; HCT-116, 0.5 h, exposure 30 min", "value": 33, "unit": "nM"},
      {"measurement": "IC50", "setting": "HCT116 cells [2]; HCT-116, after 48 h exposure", "value": "~0.6", "unit": "nM"},
      {"measurement": "survival", "setting": "[3]; 200 mg/kg with 400 mg/kg NA", "value": "significantly increased survival"},
      {"measurement": "animals having tumor volumes >1500 mm3 at end of study", "setting": "[3]; 200 mg/kg with 400 mg/kg NA", "value": "two"},
      {"measurement": "tumor growth inhibition (TGI) relative to vehicle", "setting": "[3]; oral 75 mg/kg days 1, 10, 19, day 19", "value": 53, "unit": "%"},
      {"measurement": "tumor growth inhibition (TGI)", "setting": "[3]; oral 200 mg/kg with 400 mg/kg NA days 1, 10, 19, day 19", "value": 88, "unit": "%"},
      {"measurement": "animals having tumor volumes >1500 mm3 at end of study", "setting": "[3]; other cohorts (incl. 75 mg/kg)", "value": "eight"},
      {"measurement": "lethality", "setting": "[4]", "value": "completely lethal"},
      {"measurement": "maximal tumor response, regression", "setting": "HCT116 xenograft tumors; oral 10 mg/kg daily for 21 days, day 11", "value": 32, "unit": "%"},
      {"measurement": "maximal tumor response, regression", "setting": "HCT116 xenograft tumors; oral 75 mg/kg weekly for three cycles, day 18", "value": 10, "unit": "%"},
      {"measurement": "tumor regression induced by single dose, in the presence of NA", "setting": "HCT116 xenograft tumors; oral once 75 mg/kg, NA by Alzet pump 470 mg/kg/day for three days", "value": "completely prevented"},
      {"measurement": "NAD depletion reached before loss of ATP initiated", "setting": "HCT116 cells [5]; HCT116 cells, 8.5 nM", "value": "> 90", "unit": "%"},
      {"measurement": "IC50", "setting": "HCT116 cells [5]; HCT-116, 0.5 h, exposure 30 min, read-out: potency (IC50) for NAD depletion", "value": 23, "unit": "nM"},
      {"measurement": "IC50", "setting": "HCT116 cells [5]; HCT-116, 24 h, HCT116 cells, 24 h, absence of 10 μM NA, read-out: IC50 NAD depletion", "value": 0.26, "unit": "nM"},
      {"measurement": "IC50", "setting": "HCT116 cells [5]; HCT-116, 24 h, HCT116 cells, 24 h, presence of 10 μM NA, read-out: IC50 NAD depletion", "value": "> 1000", "unit": "nM"},
      {"measurement": "IC50", "setting": "HCT116 cells [5]; HCT-116, 48 h, after 48 h exposure, read-out: potency (IC50) for NAD depletion", "value": "~0.6", "unit": "nM"},
      {"measurement": "MTD", "setting": "[6]", "value": 75, "unit": "mg/kg"}
    ]}
  ]
}
